Activity calls are given as the source filed them. The calls are words filed in the database; no cut-off is given here.

D-amino-acid oxidase, sequence (P00371 whole entry): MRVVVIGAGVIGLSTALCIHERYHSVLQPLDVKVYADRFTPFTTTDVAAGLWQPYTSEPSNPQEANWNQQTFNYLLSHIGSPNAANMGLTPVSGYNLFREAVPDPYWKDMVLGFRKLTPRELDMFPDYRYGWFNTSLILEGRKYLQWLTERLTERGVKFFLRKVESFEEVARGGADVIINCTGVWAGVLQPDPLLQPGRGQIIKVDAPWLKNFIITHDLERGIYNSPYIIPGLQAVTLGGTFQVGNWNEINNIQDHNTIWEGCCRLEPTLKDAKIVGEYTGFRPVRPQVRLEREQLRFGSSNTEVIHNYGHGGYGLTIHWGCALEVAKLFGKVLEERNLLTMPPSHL

The first test deals with Rattus norvegicus. Briefly: Increase in D-serine level in Sprague-Dawley rat plasma at 30 mg/kg, po coadministered with D-serine. Format: functional, organism-based. On the set-up: dose 30 mg/kg.
On to `Oc1noc2cc(Cl)ccc12`, for which the result was Active.

Another test has as its target D-amino-acid oxidase (Sus scrofa, UniProt P00371). The test is described as follows: Inhibition of pig D-amino acid oxidase.
`O=c1[nH]oc2ccc([N+](=O)[O-])cc12` came in with a half-inhibitory concentration (IC50) of 2950 nM. Molecule `COc1ccc2c(O)noc2c1` displayed an IC50 of 2570 nM. On the same count and under the same terms, the value for `O=c1[nH]oc2cc(C(F)(F)F)ccc12` was 5000 nM; that for `Oc1noc2ccccc12` was 1880 nM; that for `Oc1noc2ccc(Br)cc12` was 599 nM. The same measure, in the same setting: in the case of `CCOc1ccc2c(O)noc2c1` it was above 100000 nM; in that of `Oc1noc2ccc(I)cc12`, 1510 nM; in that of `Oc1noc2c(F)cccc12`, 23000 nM.

`NCc1cc(=O)[nH]o1` [MUSCIMOL] came in with a half-maximal inhibitory concentration (IC50) above 100000 nM. The same measure, in the same setting: in the case of `O=c1[nH]oc2cccc(C(F)(F)F)c12` it was above 100000 nM; in that of `COc1noc2cc(Cl)ccc12`, above 100000 nM. On the same count and under the same terms, in the case of `Oc1noc2cc(F)ccc12` it was 444 nM. Still for that read-out and setting: in the case of `Oc1noc2cc(Cl)ccc12` it was 188 nM. With `O=[N+]([O-])c1ccc2c(O)noc2c1`, inhibition was half-maximal at 722 nM (IC50). `Cc1ccc2c(O)noc2c1` had a half-inhibitory concentration (IC50) of 269 nM. On to `Cc1cccc2c(O)noc12`, for which the IC50 is above 100000 nM.

For the molecule `Cc1c(C[C@H](N)C(=O)O)o[nH]c1=O`, the IC50 was above 100000 nM. `Oc1noc2c(F)c(C(F)(F)F)ccc12` returned a concentration for half-maximal inhibition (IC50) above 100000 nM. `Oc1noc2cccc(F)c12` displayed an IC50 of 7820 nM.

Another test relates to Rattus norvegicus. The test is described as follows: Increase in D-serine level in Sprague-Dawley rat prefrontal cortex at 30 mg/kg, po. In kind it is functional, organism-based. Also on record: dose 30 mg/kg.
As for `Oc1noc2cc(Cl)ccc12`, the result was inactive.

The subject of a further test is Rattus norvegicus. The test is described as follows: Increase in D-serine level in Sprague-Dawley rat prefrontal cortex at 30 mg/kg, po coadministered with D-serine. Format: functional.
For `Oc1noc2cc(Cl)ccc12`, the Activity is above 60%.

The values are drawn from ChEMBL document CHEMBL1150429, “Synthesis and biological evaluation of D-amino acid oxidase inhibitors” (J Med Chem, 2008).
